Values of other authors as cited in patent US5296468A, “GnRH analogs” (The Salk Institute for Biological Studies, priority 1993, dated 1994).

Legend:
[1] = background, U.S. Pat. No. 4,072,668
the receptor = target: T1, the receptor (Homo sapiens, UniProt P30968); details: background, U.S. Pat. No. 4,072,668
T1 sequence (P30968 1-328): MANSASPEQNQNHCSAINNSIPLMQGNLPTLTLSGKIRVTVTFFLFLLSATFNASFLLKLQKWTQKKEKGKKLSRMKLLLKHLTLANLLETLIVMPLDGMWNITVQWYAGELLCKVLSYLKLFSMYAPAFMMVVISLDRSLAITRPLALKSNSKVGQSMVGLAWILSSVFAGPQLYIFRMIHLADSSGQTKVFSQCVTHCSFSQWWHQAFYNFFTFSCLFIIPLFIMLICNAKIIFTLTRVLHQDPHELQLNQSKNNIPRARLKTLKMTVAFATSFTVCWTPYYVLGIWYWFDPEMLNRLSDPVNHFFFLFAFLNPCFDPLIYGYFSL

binding strength to the receptor compared with the native hormone (the receptor): greater binding strength to the receptor
Substance: pGlu-His-Trp-Ser-Tyr-D-Ala-Leu-Arg-Pro-Gly-NH2 [[D-Ala^6]-GnRH]
biological potency compared with the native hormone [1]: greater biological potency than the native hormone
